Reference: ChEMBL document CHEMBL1201862, “PubChem BioAssay data set” (2004)
The source made the active and inactive calls.

Experiments:
[1] = biological target: T1, Bcl-2-related protein A1 (Mus musculus, UniProt Q07440); format: functional;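 also: confirmatory dose–response counterscreen on Bfl-1, used to check hits from a UBC13 polyubiquitin inhibitor campaign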
T1 sequence (Q07440 whole entry): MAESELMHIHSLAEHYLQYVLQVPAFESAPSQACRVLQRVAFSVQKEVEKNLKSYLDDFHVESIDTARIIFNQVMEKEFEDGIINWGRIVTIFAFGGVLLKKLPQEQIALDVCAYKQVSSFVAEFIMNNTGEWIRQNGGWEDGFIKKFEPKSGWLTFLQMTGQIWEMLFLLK

[2] = biological target: T2, Ubiquitin-conjugating enzyme E2 N (Homo sapiens, UniProt P61088); format: functional
T2 sequence (P61088 whole entry): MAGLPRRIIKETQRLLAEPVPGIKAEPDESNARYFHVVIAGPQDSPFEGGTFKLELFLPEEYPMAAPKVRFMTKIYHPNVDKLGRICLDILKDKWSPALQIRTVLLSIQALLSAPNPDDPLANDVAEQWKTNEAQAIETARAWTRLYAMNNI

[3] = biological target: T2, Ubiquitin-conjugating enzyme E2 N; format: functional; remark: listed apart in the source
[4] = inhibitors of Vif binding to APOBEC3G peptide, primary screen, biochemical, TR-FRET, GST-Vif 1-94, biotin-A3G peptide, dose response retest (AID 1117319); format: functional;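 also: TR-FRET signal of purified GST-Vif binding a biotinylated A3G peptide; inhibitors lower the FRET signal by blocking Vif and A3G binding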
[5] = biological target: Cytochrome P450 2C9 (Homo sapiens, UniProt P11712)
Cytochrome P450 2C9, sequence (P11712 whole entry): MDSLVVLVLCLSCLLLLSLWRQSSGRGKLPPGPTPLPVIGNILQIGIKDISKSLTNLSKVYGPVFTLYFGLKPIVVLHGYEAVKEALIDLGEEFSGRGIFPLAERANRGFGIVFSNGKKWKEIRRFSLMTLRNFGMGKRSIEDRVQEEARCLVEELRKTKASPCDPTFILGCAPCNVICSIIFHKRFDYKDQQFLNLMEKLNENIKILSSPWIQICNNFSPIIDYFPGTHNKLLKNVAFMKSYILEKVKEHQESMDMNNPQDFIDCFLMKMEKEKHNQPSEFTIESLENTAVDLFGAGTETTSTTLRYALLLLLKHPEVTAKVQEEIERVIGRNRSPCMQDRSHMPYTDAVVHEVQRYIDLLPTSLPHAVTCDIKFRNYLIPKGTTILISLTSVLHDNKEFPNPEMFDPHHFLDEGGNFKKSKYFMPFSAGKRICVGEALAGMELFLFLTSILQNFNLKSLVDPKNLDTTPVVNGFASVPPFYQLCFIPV

[6] = biological target: DNA dC->dU-editing enzyme APOBEC-3A (Homo sapiens, UniProt P31941); assay: Dose Response confirmation of small molecule APOBEC3A DNA Deaminase Inhibitors via a fluorescence-based single-stranded DNA deaminase assay. [Related pubchem assays (depositor defined):AID493011, AID493024]; format: functional
DNA dC->dU-editing enzyme APOBEC-3A, sequence (P31941 whole entry): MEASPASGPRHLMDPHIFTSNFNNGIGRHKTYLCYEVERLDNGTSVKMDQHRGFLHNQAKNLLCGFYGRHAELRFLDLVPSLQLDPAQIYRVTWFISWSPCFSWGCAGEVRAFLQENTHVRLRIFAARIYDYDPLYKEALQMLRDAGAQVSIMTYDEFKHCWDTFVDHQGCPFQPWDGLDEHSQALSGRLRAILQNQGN

[7] = biological target: DNA dC->dU-editing enzyme APOBEC-3G (Homo sapiens, UniProt Q9HC16); format: functional;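 also: Dose-response counterscreen measuring inhibition of APOBEC3G DNA deaminase activity, run while confirming APOBEC3A inhibitors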
DNA dC->dU-editing enzyme APOBEC-3G, sequence (Q9HC16 whole entry, the tested form may be a part): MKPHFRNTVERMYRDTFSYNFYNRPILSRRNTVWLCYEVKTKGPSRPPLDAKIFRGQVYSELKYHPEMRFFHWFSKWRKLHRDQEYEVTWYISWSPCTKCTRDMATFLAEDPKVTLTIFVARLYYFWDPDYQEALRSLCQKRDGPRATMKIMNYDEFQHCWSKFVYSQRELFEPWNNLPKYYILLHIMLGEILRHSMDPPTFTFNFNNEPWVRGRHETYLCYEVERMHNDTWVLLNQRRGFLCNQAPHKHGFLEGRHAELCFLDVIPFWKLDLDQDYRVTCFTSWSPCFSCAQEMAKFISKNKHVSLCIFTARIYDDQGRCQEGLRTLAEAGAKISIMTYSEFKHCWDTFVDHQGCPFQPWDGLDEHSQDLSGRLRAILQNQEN

[8] = biological target: T3, RNA-binding protein pos-1 (Caenorhabditis elegans, UniProt G5EF15); assay: inhibitors of POS-1/mex-3 RNA binding, dose response, biochemical, fluorescence polarization (AID 1964);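 also: purified POS-1 fused to maltose binding protein made in E. coli; potency of compounds blocking POS-1 binding to fluorescent RNA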
T3 sequence (G5EF15 whole entry): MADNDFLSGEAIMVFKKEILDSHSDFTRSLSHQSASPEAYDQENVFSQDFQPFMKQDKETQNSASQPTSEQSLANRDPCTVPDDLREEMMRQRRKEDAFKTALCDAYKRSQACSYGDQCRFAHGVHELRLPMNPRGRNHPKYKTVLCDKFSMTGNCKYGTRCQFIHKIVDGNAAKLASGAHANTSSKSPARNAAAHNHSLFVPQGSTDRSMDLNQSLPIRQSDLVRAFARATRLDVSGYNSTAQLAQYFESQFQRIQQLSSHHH

[9] = biological target: T4, Zinc finger protein mex-5 (Caenorhabditis elegans, UniProt Q9XUB2); assay: MEX-5/TCR-2 RNA interaction inhibitors, dose response, biochemical, C. elegans, fluorescence polarization (AID 1960)
T4 sequence (Q9XUB2 whole entry): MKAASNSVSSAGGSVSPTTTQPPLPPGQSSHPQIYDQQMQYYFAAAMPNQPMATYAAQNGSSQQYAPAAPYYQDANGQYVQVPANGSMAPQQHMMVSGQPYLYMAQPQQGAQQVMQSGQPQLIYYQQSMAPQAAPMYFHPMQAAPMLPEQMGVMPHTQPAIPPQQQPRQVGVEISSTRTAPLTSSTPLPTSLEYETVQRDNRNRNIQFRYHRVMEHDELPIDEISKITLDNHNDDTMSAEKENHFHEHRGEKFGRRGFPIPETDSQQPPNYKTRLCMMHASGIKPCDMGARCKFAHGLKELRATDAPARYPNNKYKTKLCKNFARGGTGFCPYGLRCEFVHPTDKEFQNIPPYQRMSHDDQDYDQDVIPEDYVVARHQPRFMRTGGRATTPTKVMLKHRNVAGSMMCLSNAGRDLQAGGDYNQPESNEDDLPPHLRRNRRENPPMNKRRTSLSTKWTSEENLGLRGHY

[10] = biological target: T5, Short transient receptor potential channel 4 (Mus musculus, UniProt Q9QUQ5); assay: mouse TRPC4 channel activators, dose response, cell-based, HEK293 TRPC4/mu-opioid, Fluo-4 calcium (AID 434937); format: functional
T5 sequence (Q9QUQ5 whole entry): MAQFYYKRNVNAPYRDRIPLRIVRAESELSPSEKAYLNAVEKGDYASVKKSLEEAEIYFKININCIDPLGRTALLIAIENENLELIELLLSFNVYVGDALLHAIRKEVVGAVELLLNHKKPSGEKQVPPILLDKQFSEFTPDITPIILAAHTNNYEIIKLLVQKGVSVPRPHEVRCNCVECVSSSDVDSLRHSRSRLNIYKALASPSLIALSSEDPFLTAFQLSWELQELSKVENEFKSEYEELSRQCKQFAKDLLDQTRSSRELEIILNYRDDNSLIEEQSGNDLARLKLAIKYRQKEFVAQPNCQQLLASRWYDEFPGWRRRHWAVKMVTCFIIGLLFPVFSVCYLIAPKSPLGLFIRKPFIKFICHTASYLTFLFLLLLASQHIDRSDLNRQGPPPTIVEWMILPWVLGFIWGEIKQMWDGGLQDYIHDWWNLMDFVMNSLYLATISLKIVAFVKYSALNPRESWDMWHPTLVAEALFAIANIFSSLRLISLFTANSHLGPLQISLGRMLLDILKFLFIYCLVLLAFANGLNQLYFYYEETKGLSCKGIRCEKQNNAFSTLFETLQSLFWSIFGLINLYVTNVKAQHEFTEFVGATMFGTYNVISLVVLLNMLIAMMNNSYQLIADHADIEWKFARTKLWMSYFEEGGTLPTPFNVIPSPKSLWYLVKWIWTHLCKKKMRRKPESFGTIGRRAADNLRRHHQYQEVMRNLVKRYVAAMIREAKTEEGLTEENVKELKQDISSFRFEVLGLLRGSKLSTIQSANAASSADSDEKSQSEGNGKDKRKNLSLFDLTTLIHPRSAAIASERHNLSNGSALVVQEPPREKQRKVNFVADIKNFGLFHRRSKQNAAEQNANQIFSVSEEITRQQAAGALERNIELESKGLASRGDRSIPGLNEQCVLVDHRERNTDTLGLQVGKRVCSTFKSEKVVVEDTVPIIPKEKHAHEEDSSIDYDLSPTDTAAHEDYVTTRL

[11] = biological target: T6, Histone-lysine N-methyltransferase NSD2 (Homo sapiens, UniProt O96028); format: biochemical
T6 sequence (O96028 whole entry): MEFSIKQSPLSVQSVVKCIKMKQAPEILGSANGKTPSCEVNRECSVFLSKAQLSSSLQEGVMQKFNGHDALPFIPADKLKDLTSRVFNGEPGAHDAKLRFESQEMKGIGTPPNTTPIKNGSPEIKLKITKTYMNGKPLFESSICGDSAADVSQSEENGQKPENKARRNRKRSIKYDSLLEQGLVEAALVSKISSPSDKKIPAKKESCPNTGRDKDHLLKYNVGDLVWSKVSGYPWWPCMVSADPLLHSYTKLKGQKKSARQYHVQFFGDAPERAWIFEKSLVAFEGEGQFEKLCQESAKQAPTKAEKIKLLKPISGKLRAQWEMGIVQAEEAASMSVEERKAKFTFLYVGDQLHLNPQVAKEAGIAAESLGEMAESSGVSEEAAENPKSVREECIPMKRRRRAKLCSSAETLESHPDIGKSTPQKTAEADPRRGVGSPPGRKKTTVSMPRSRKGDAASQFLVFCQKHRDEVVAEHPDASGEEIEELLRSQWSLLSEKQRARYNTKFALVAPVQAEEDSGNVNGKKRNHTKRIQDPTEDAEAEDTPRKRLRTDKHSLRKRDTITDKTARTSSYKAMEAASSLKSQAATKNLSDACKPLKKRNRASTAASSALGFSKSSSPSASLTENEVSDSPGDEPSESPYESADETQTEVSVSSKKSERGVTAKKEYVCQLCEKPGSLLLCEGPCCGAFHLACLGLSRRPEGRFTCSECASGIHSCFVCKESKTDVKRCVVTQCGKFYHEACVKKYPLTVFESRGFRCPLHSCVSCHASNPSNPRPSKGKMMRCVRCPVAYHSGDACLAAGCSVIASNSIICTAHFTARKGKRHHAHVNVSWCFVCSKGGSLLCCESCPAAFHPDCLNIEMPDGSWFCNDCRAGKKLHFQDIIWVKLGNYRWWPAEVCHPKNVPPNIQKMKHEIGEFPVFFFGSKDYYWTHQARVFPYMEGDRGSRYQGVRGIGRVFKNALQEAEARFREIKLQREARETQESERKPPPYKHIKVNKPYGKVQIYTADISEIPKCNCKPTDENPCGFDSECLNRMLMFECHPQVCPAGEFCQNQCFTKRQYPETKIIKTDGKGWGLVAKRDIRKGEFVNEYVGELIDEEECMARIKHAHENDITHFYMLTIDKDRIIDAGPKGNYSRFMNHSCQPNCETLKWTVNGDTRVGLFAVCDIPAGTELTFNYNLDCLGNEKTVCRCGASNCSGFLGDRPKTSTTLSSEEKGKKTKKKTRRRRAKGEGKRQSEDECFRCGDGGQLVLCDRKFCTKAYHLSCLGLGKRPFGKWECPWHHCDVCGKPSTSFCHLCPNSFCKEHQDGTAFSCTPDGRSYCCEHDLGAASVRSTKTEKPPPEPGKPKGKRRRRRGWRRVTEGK

[12] = inhibitors of intracellular T. cruzi replication, confirmation, NIH3T3 host cells, beta-gal luminescence (AID 2044); format: functional, cell-based;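 also: intracellular parasites grown in NIH/3T3 mouse fibroblasts as host cells; luminescent beta-galactosidase reporter signal from transgenic T. cruzi replicating inside host cells; inhibitors lower the luminescence signal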
[13] = cytotoxicity toward NIH3T3 fibroblasts, dose response, counter-screen, cell-based, ATP luminescence, mouse fibroblasts (AID 2010); format: functional;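 also: cells exposed to compound for about 90 hours before reading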
[14] = biological target: Cytochrome P450 2D6 (Homo sapiens, UniProt P10635);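 also: CYP2D6 member of a cytochrome P450 panel assay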
Cytochrome P450 2D6, sequence (P10635 whole entry): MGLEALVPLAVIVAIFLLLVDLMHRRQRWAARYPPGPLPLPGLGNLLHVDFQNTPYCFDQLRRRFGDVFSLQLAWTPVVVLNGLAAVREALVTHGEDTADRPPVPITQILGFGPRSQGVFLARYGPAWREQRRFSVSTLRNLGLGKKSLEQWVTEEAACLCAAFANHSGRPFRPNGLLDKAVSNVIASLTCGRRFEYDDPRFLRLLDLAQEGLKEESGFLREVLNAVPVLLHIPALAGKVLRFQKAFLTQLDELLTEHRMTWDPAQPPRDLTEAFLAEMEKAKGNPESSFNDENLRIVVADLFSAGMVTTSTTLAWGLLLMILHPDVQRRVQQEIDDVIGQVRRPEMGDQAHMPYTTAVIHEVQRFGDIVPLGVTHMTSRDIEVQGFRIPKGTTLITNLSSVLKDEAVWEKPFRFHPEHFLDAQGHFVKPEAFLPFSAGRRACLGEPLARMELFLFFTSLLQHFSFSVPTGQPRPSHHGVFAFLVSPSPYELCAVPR

[15] = P. falciparum 3D7-ScDHODH growth inhibitors, dose response, SYBR Green, dry powder samples (AID 1159570); format: functional, cell-based;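 also: parasite growth measured after 72 hours of compound exposure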
[16] = HepG2 cell cytotoxicity, dose response, cytotoxicity control, plate reader, dry powder samples (AID 1159569); format: functional, cell-based;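 also: inhibitor potency with signal falling toward the positive control level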
[17] = P. falciparum Dd2 growth inhibitors, dose response, SYBR Green, cherry-picked samples (AID 1159567); format: functional, cell-based
[18] = P. falciparum Dd2 growth inhibitors, dose response, SYBR Green, dry powder samples (AID 1159566); format: functional, cell-based;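 also: potency for growth inhibition with lower SYBR green DNA signal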
[19] = P. falciparum ATP4 D1247Y mutant growth inhibitors, dose response, NITD609-resistant line, SYBR Green, dry powder (AID 1159571); format: functional, cell-based;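 also: parasites synchronized at ring stage by sorbitol before testing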

SMILES: Cc1ccc2cc3c(nc2c1)N(c1ccccc1)CC3
- IC50 [1]: > 20 µM (inactive)
- IC50 [2]: 18.4 µM (active)
- IC50 [3]: > 20 µM (inactive)

SMILES: Nc1nc(SCc2nc(-c3ccccc3)no2)nc(O)c1-c1ccccc1
- IC50 [4]: > 100 µM (active)

SMILES: Cc1ccc(C(=O)NNC(=O)c2nn(-c3ccc(F)cc3)ccc2=O)cc1
- IC50 [1]: > 20 µM (inactive)
- IC50 [2]: 7.29 µM (active)
- IC50 [3]: 8.19 µM (active)

SMILES: Clc1ccc(CN2CCCN(Cc3ccc(Cl)cc3)C2c2cc3ccccc3c3ccccc23)cc1
- AC50 [5]: inconclusive

SMILES: O=C(O)c1cc2nc(-c3cccs3)cc(C(F)(F)F)n2n1
- IC50 [6]: 12.1 µM (active)
- IC50 [7]: > 100 µM (inactive)

SMILES: O=C(O)c1cccc(-n2cccc2/C=C2\NC(=O)N(Cc3ccc(F)cc3)C2=O)c1
- EC50 [8]: > 300 µM (not active)
- EC50 [9]: > 150 µM (not active)
- IC50 [6]: 11.4 µM (active)
- IC50 [7]: 29.7 µM (active)

SMILES: CNCCCOc1ccc2c(c1)CCC2
- EC50 [10]: 4.73 µM (active)
- AC50 [11]: > 20 µM (inactive)

SMILES: Cc1ccc(N(C(=O)c2snc(C(N)=O)c2N)C(C(=O)NCCC(C)C)c2ccco2)cc1 (configuration not stated)
- EC50 [12]: 1.1 µM (active)
- EC50 [13]: > 60 µM (not active)
- IC50 [1]: > 20 µM (inactive)
- IC50 [2]: 17 µM (active)
- IC50 [3]: 10.9 µM (active)

SMILES: O=C1c2cccc3cccc(c23)C(=O)N1Cc1cccnc1
- IC50 [1]: > 20 µM (inactive)
- IC50 [2]: 19.1 µM (active)
- IC50 [3]: 18.1 µM (active)

SMILES: Nc1ccc2[nH]c(-c3cccc(-c4nc5cc(N)ccc5[nH]4)n3)nc2c1
- EC50 [8]: > 300 µM (not active)
- EC50 [9]: > 300 µM (not active)
- IC50 [1]: 5.82 µM (active)
- IC50 [2]: 9 µM (active)
- IC50 [3]: 8.28 µM (active)

SMILES: C=CC[n+]1c2n(c3ccccc3c1=O)CCCCC2
- IC50 [6]: 3.57 µM (active)
- IC50 [7]: 6.84 µM (active)

SMILES: O=C(NCc1ccco1)C1CCCN(S(=O)(=O)c2cccc3nsnc23)C1 (configuration not stated)
- IC50 [4]: > 100 µM (active)

SMILES: CN1CCN(C(=O)c2ccc(N(C)S(=O)(=O)c3cccs3)cc2)CC1
- IC50 [4]: > 100 µM (active)

SMILES: COc1cccc(C(=O)Nc2cc(C(F)(F)F)ccc2Cl)c1
- AC50 [14]: 28.2 µM (inconclusive)
- AC50 [5]: inconclusive

SMILES: CN1c2ccsc2/C(=N/NC(=O)c2c(F)cccc2F)CS1(=O)=O
- IC50 [4]: > 100 µM (active)

SMILES: N#Cc1ccc(-c2ccc([C@@H]3[C@@H]4CN(C(=O)C5CCCC5)C[C@H]3N4)cc2)cc1
- AC50 [15]: 3.48 µM (active)
- AC50 [16]: 51 µM (active)
- AC50 [17]: 2.72 µM (active)
- AC50 [18]: 2250 nM (active)
- AC50 [19]: 3530 nM (active)

SMILES: COc1ccc2c3c([nH]c2c1)[C@H](CO)N(C(=O)Nc1ccc(F)cc1)CC31CCN(Cc2cc(-c3ccccc3)on2)CC1
- AC50 [15]: 1.47 µM (active)
- AC50 [16]: 30.3 µM (active)
- AC50 [17]: 1.43 µM (active)
- AC50 [18]: 452 nM (active)
- AC50 [19]: 876 nM (active)

SMILES: C[C@@H]1CN([C@H](C)CO)C(=O)c2cccc(NC(=O)c3nc4ccccc4s3)c2O[C@H]1CN(C)C(=O)NC1CCCCC1
- AC50 [15]: 0.114 µM (active)
- AC50 [16]: > 100 µM (inactive)
- AC50 [17]: 2.73 µM (active)
- AC50 [18]: 196 nM (active)
- AC50 [19]: 152 nM (active)

SMILES: O=c1cc(O)nc(SCc2ccccc2Cl)[nH]1
- IC50 [4]: > 100 µM (active)
